Source: PubChem BioAssay (NCI)
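How tested: cells in 96-well plates exposed to compound for 48 hours at five concentrations. GI50 = concentration required for 50% inhibition of growth. Definition used: TGI = concentration required for complete inhibition of growth.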

Legend:
Test in all cases: inhibition of tumour cell growth, NCI panel, 48 h
SK-MEL-5 melanoma = system: SK-MEL-5 melanoma
UO-31 renal = system: UO-31 renal
OVCAR-8 ovarian = system: OVCAR-8 ovarian
SK-OV-3 ovarian = system: SK-OV-3 ovarian
UACC-257 melanoma = system: UACC-257 melanoma
KM12 colon = system: KM12 colon
A549 NSCLC = system: A549 NSCLC
SW-620 colon = system: SW-620 colon
HCT-15 colon = system: HCT-15 colon
OVCAR-4 ovarian = system: OVCAR-4 ovarian

SMILES | TGI (SK-MEL-5 melanoma) | TGI (UO-31 renal) | TGI (OVCAR-8 ovarian) | TGI (SK-OV-3 ovarian) | TGI (UACC-257 melanoma) | TGI (KM12 colon) | TGI (A549 NSCLC) | TGI (SW-620 colon) | TGI (HCT-15 colon) | TGI (OVCAR-4 ovarian) | GI50 (SK-MEL-5 melanoma) | GI50 (OVCAR-4 ovarian) | GI50 (UO-31 renal) | GI50 (OVCAR-8 ovarian) | GI50 (SK-OV-3 ovarian) | GI50 (UACC-257 melanoma) | GI50 (KM12 colon) | GI50 (A549 NSCLC) | GI50 (SW-620 colon) | GI50 (HCT-15 colon)
CCOc1ccc2c(c1)NC(=O)C(C1OC(c3ccccc3)=CC1=O)S2 (stereo unspecified) | 39.2 µM | 90.3 µM | 55.7 µM | 52.8 µM | > 100 µM | 66.3 µM | 46.8 µM | 88.8 µM | 69.2 µM | – | – | – | – | – | – | – | – | – | – | –
C[n+]1c(-c2ccc(/C=N\NC(=O)c3ccc(C(=O)N/N=C/c4ccc(-c5cn6ccsc6[n+]5C)cc4)cc3)cc2)cn2ccsc21 | 34 µM | 32.3 µM | 40.8 µM | 74.6 µM | 54.9 µM | 58.2 µM | 57.8 µM | 40 µM | 37.8 µM | 57.8 µM | – | – | – | – | – | – | – | – | – | –
CCOc1cc(NC(C)=O)ccc1C(=O)NN1C(=O)CSC1c1ccc(O)c(OC)c1 (stereo unspecified) | > 100 µM | 29.5 µM | > 100 µM | > 100 µM | > 100 µM | > 100 µM | > 100 µM | > 100 µM | > 100 µM | > 100 µM | – | – | – | – | – | – | – | – | – | –
O=C(CCO)OCCCCCC/C=C\CCCCCC/C=C\CCCCCCCCOC(=O)CCO | > 100 µM | 32.6 µM | 36.3 µM | 37.5 µM | 30.9 µM | 46 µM | 29.6 µM | 80.4 µM | 29.1 µM | 55.9 µM | – | – | – | – | – | – | – | – | – | –
OC1(c2ccc3ccccc3c2)c2ccc3ccccc3c2C2=NCCN21 (stereo unspecified) | > 100 µM | > 100 µM | 82.2 µM | > 100 µM | > 100 µM | > 100 µM | > 100 µM | > 100 µM | > 100 µM | 85.8 µM | – | – | – | – | – | – | – | – | – | –
Cc1ccc(S(=O)(=O)NCCSS(=O)(=O)c2ccc(C)cc2)cc1 | 43.1 µM | 61.7 µM | > 100 µM | > 100 µM | > 100 µM | 85.8 µM | 63.5 µM | 46.5 µM | 37.8 µM | > 100 µM | – | – | – | – | – | – | – | – | – | –
CCCc1ccc(OCC(=O)N/N=C/c2c(-c3ccccc3)[nH]c3ccccc23)cc1 | 20.8 µM | > 100 µM | 53.4 µM | > 100 µM | 33.7 µM | 38.5 µM | > 100 µM | > 100 µM | 59.8 µM | 42.7 µM | – | – | – | – | – | – | – | – | – | –
CS(=O)(=O)OCc1c(O)c2c(c(O)c1COS(C)(=O)=O)C(=O)C=CC2=O | > 100 µM | > 100 µM | > 100 µM | > 100 µM | > 100 µM | > 100 µM | > 100 µM | > 100 µM | > 100 µM | > 100 µM | – | – | – | – | – | – | – | – | – | –
CCCC(=O)OCC(O)CO (stereo unspecified) | > 5000 µM | > 5000 µM | > 5000 µM | > 5000 µM | > 5000 µM | > 5000 µM | > 5000 µM | > 5000 µM | > 5000 µM | > 5000 µM | – | – | – | – | – | – | – | – | – | –
NC(N)=N/N=C/c1ccc(O)c(C(=O)O)c1 | > 100 µM | > 100 µM | > 100 µM | > 100 µM | > 100 µM | > 100 µM | > 100 µM | > 100 µM | > 100 µM | > 100 µM | – | – | – | – | – | – | – | – | – | –
Oc1ccc2ccccc2c1Cc1c(O)ccc2ccccc12 | 32.1 µM | 32.2 µM | 36.9 µM | 35 µM | 48.9 µM | 43.9 µM | 39.9 µM | 39.9 µM | 32.7 µM | 30.6 µM | – | – | – | – | – | – | – | – | – | –
NC1=NS(=O)(=O)Nc2nc(-c3cccs3)[nH]c21 | > 100 µM | > 100 µM | > 100 µM | > 100 µM | – | > 100 µM | > 100 µM | > 100 µM | > 100 µM | > 100 µM | – | – | – | – | – | – | – | – | – | –
COc1ccc(-n2cc(-c3ccc(OC)c(OC)c3)nc2SCc2ccccc2)cc1Cl | 18.6 µM | > 100 µM | > 100 µM | > 100 µM | 38.3 µM | 68.1 µM | > 100 µM | > 100 µM | > 100 µM | > 100 µM | 5.78 µM | 20.1 µM | 15.2 µM | 25.9 µM | 66.6 µM | 7.23 µM | 21.3 µM | 21.3 µM | 29.9 µM | 20 µM
C[C@]12CC[C@H](O)CC1=CC[C@@H]1[C@@H]2CC[C@]2(C)C(=O)CC[C@@H]12 | > 100 µM | > 100 µM | > 100 µM | > 100 µM | > 100 µM | > 100 µM | > 100 µM | > 100 µM | > 100 µM | > 100 µM | – | – | – | – | – | – | – | – | – | –
C=CCC1=CC2(OC)C(=O)C(OC)(OC)C1C1C(OC)(OC)C(=O)C(OC)=CC12CC=C (stereo unspecified) | > 100 µM | > 100 µM | > 100 µM | > 100 µM | > 100 µM | > 100 µM | > 100 µM | > 100 µM | > 100 µM | > 100 µM | – | – | – | – | – | – | – | – | – | –
FC(F)(F)C1=NC(=NNc2nnc(-c3ccccc3)c(-c3ccccc3)n2)N=C(C(F)(F)F)C1 | > 66 µM | 29.1 µM | > 100 µM | > 100 µM | > 100 µM | > 100 µM | > 100 µM | > 100 µM | > 100 µM | > 100 µM | – | – | – | – | – | – | – | – | – | –
CCCCOc1ccc(S(=O)(=O)/N=C(\NN)Nc2ccc(Cl)cc2)cc1 | > 100 µM | 37.5 µM | 36.2 µM | 67.4 µM | 68.7 µM | > 100 µM | 36.6 µM | 82.2 µM | > 100 µM | 45.3 µM | – | – | – | – | – | – | – | – | – | –
ClCC1(CCl)COC1 | > 100 µM | > 100 µM | > 100 µM | > 100 µM | > 100 µM | > 100 µM | > 100 µM | > 100 µM | > 100 µM | > 100 µM | – | – | – | – | – | – | – | – | – | –
O=c1cc(-c2nc3ccccc3[nH]2)[nH]c2nc(-c3nc4ccccc4[nH]3)cc(-c3ccc(Cl)cc3)c12 | 30.9 µM | 33 µM | > 100 µM | 46.1 µM | 69.3 µM | 64.4 µM | 87.2 µM | 54.1 µM | 25.5 µM | 95.4 µM | – | – | – | – | – | – | – | – | – | –
CC[N+](CC)(CC)/C(=N/S(=O)(=O)c1cc(C)c(Cl)cc1S)[N-]S(=O)(=O)c1ccc(Cl)cc1 | > 100 µM | > 100 µM | > 100 µM | > 100 µM | > 100 µM | > 100 µM | – | > 100 µM | > 100 µM | > 100 µM | – | – | – | – | – | – | – | – | – | –
Cc1onc(-c2c(F)cccc2Cl)c1C(=O)N[C@@H]1C(=O)N2[C@@H]1SC(C)(C)[C@@H]2C(=O)O | > 100 µM | 67.4 µM | > 100 µM | > 100 µM | > 100 µM | > 100 µM | > 100 µM | > 100 µM | > 100 µM | > 100 µM | – | – | – | – | – | – | – | – | – | –
Cc1cc(-c2nc3cc(F)ccc3s2)ccc1NC(=O)C(C)N (stereo unspecified) | 13.6 µM | 7.05 µM | 8.62 µM | 8.84 µM | 8.88 µM | 9.36 µM | 7.72 µM | 9.77 µM | 6.67 µM | 8.18 µM | – | – | – | – | – | – | – | – | – | –
COc1cc(NCc2ccc3n2-c2ccccc2OC3)cc(OC)c1OC | 32.3 µM | 60 µM | > 100 µM | – | 64.1 µM | > 100 µM | > 100 µM | > 100 µM | > 100 µM | 55.5 µM | – | – | – | – | – | – | – | – | – | –
COc1c2ccoc2c(S(=O)(=O)Nc2ccc(Cl)cc2)c2oc(C)cc(=O)c12 | > 100 µM | > 100 µM | > 100 µM | > 100 µM | > 100 µM | > 100 µM | > 100 µM | > 100 µM | > 100 µM | > 67.2 µM | – | – | – | – | – | – | – | – | – | –
